Results taken from patent US10385372B2, “Methods for thaxtomin production and modified streptomyces with increased thaxtomin production” (priority 2014, dated 2019).

Tests used:
[1] = system: S. scabies CebR regulator (CebR-His6); experiment: Electromobility gel shift assay (EMSA) with CebR-His6 pre-incubated with cellobiose and cellooligosaccharides; type: binding, Streptomyces scabies; settings: EMSA of FIG. 4; for impairment of the CebR DNA-binding ability (quantification of shifted bands): CebR-His6 pre-incubated with oligosaccharide, Cy5-labelled cbs probes 6 nM
Experimental: Numbers 1 and 2 refer to EMSAs with free probes (6 nM) and with probes incubated with CebR-His6, respectively. Numbers 3 to 7 refer to EMSAs with CebR-His6 pre-incubated with oligosaccharides, i.e. cellobiose (3), cellotriose (4), cellotetraose (5), cellopentaose (6), and cellohexaose (7). Note that cellobiose (3) is the best oligosaccharide for preventing CebR interaction with all CebR-binding sites.
Electromobility gel shift assays (EMSAs) were performed in order to assess binding of the S. scabies CebR regulator (CebR^sca) to the in silico predicted cbs. The scab57761 gene was cloned into pET-22b and overexpressed in Escherichia coli Rosetta (DE3) cells. The resulting recombinant His-tagged CebR (CebR-His6) was purified from the IPTG-induced E. coli cytoplasmic extracts by Nickel-NTA affinity column. […] Under the same conditions, strong CebR-binding to cbs^cebE-R and cbs^bglC, which were used as positive controls of genes known to be directly controlled by CebR (Schlösser 2000; Marushima 2009), was observed (FIG. 3).
Experimental in vitro validations of predicted cis-acting elements allowed proposing a signaling pathway from cellobiose sensing and transport to thaxtomin biosynthesis (FIG. 5). […] Once inside the cell, cellobiose (and to a lesser extent cellotriose) prevents CebR-binding to cbs^txtR-A and cbs^txtB allowing expression of txtA, txtB and txtR. Consequently, TxtR complexed to cellobiose would be able to increase the expression levels of txtA and txtB, the thaxtomin biosynthetic genes.
EMSAs with 34-bp double-stranded probes (generated by PCR, Table 2) were performed using Cy5-labeled cbs probes (6 nM and 30 nM final concentration) and His6-tagged CebR at a final concentration between 0.08 and 3.2 μM in a total reaction volume of 50 μl. All reactions were carried out in EMSA buffer (10 mM Tris-HCl, pH 7.5, 1 mM dithiothreitol [DTT], 0.25 mM CaCl2, 0.5 mM MgCl2, 50 mM KCl, and 2% glycerol) containing excess of nonspecific DNA (salmon sperm DNA). After 15 min of incubation at room temperature, reaction mixtures were loaded onto a 1% (wt/vol) agarose gel. Bound and unbound probes were separated by gel electrophoresis for 30 min at 100 V at room temperature, and fluorescent DNA was visualized using a Typhoon Trio+ variable-mode imager (FRFC 2.4506.08).

[2] = system: S. scabies 87-22 and ΔcebR; experiment: Thaxtomin production on ISP-4 plates with and without cellobiose supply (HPLC); type: cell-based, Streptomyces scabies; settings: ISP-4 medium; wild-type or ΔcebR background; FIGS. 8A and 8B
Text: FIGS. 8A-B illustrate genetic complementation of the cebR mutant scored by thaxtomin production on ISP-4 plates. […] Although pigmentation is not visible in the black and white photos, FIG. 8B is a graphic illustration HPLC analysis of thaxtomin production on the ISP-4 plates from FIG. 8A. […] Thaxtomin production is reverted back to wild-type levels when the mutation is genetically complemented (cebR mutant transformed with pRLIF8 containing the cebR gene and its promoter region).
The production of thaxtomin by both strains grown on ISP-4 with and without cellobiose supply was compared. […] The further increase in toxin production by the mutant upon addition of cellobiose is most likely due to the function of cellobiose as ligand of the transcriptional activator TxtR, which drives the expression of the thaxtomin biosynthetic genes txtA and txtB (Joshi et al. 2007) (FIG. 5).
Mycelial suspensions of S. scabies strains were prepared from 48-72 h-old TSB-grown cultures by pelleting the mycelia, washing twice with sterile water, and resuspending in 1 ml sterile water to obtain an optical density at 600 nm (OD600 mn) of 1.0. […] Thaxtomin A was purified from the supernatant and analyzed by HPLC as described previously (Johnson et al. 2007). […]

Row | SMILES | impairment of the CebR DNA-binding ability (quantification of shifted bands) [1] [%] | allosteric effector inhibiting CebR from binding to its DNA targets ([1]; compared with cellotriose to cellohexaose) | effect of addition on thaxtomin production [2]
1 | O=C[C@H](O)[C@@H](O)[C@H](O[C@@H]1O[C@H](CO)[C@@H](O)[C@H](O)[C@H]1O)[C@H](O)CO [cellobiose] | 56 | best allosteric effector | significant increase
2 | OC[C@H]1O[C@@H](O[C@H]2[C@H](O)[C@@H](O)[C@H](O[C@H]3[C@H](O)[C@@H](O)[C@H](O[C@H]4[C@H](O)[C@@H](O)[C@H](O[C@H]5[C@H](O)[C@@H](O)[C@H](O[C@H]6[C@H](O)[C@@H](O)C(O)O[C@@H]6CO)O[C@@H]5CO)O[C@@H]4CO)O[C@@H]3CO)O[C@@H]2CO)[C@H](O)[C@@H](O)[C@@H]1O (some centres unmarked) [cellohexaose] | 12 |  | 
3 | OC[C@H]1O[C@@H](O[C@H]2[C@H](O)[C@@H](O)[C@H](O[C@H]3[C@H](O)[C@@H](O)C(O)O[C@@H]3CO)O[C@@H]2CO)[C@H](O)[C@@H](O)[C@@H]1O (some centres unmarked) [cellotriose] | 20 |  | 
